The source of these data is US20260294922A1, “Inhibitors of JUN N-Terminal Kinases (JNK1, JNK2, and/or JNK3) and Mitogen-Activated Protein Kinases (MAPK8, MAPK9, and/or MAPK10) and Methods of Using Same” (Baylor College of Medicine, priority 2023, published 2026).

One data set addresses T1, CSNK1A1 (Homo sapiens, UniProt P48729).
T1 construct: purchased ThermoFisher (SelectScreen)
As to the kind of experiment: ThermoFisher SelectScreen, CSNK1A1. The data set is classed as binding. The note with it: Table 4. The procedure: (§1) To mitigate violation of the linear initial velocity principle, which is a problem in end-point assays when doing dose-responses, the enzyme concentration was carefully optimized, in a total assay volume of 25 μL. The assay was performed using 10 μM ATP, 0.02% Tween-20, kinase buffer from Cell Signaling (#9802) in white 384-well plates. The kinase reaction was done for 30 or 60 min at 30° C., and detection of leftover ATP was measured according to Promega's protocol. […] Fractional activities were obtained from normalized data. Non-linear regression (GraphPad Prism7) and a modified Morrison equation for tight binding was used to determine apparent Ki values for inhibitors, assuming no particular mode of inhibition. An orthogonal binding assay (LanthaScreen) was outsourced to ThermoFisher Scientific's SelectScreen Services to determine IC50 values.
(§2) One of the earliest compounds to be synthesized with favorable enzymatic activity towards JNK1 and JNK3 was CDD-2346. A KINOMEscan was performed for CDD-2346 to establish whether the selectivity of this chemical scaffold was suitable or required optimization. […] To confirm that the activity against each kinase was a true result and not a false positive, CDD-2346 was evaluated in kinase assays using ThermoFisher SelectScreen platform. The results from these assays are provided herein (Table 4). The important innovative steps described are the optimization of selectivity a) for JNK isoforms; b) for kinases considered “in-pathway”; and c) to avoid kinases considered “out-of-pathway”.

A short description of data set [1]: In vitro metabolism in human liver microsomes. The following applies: human, microsomes. The procedure: The target product profile seeks to deliver JNK inhibitor as a once daily oral administration. To prioritize compounds for further development, in vitro metabolism of several CDD JNK inhibitors were determined to approximate the plasma half-life and the rate of metabolism of the compounds in vivo.
(In general: Microsomes from liver hold many membrane-bound enzymes, among them those of drug oxidation.)

For another data set, the target named is T2, PHKG2 (Homo sapiens, UniProt P15735).
T2 construct: purchased ThermoFisher (SelectScreen, outsourced service)
T2 sequence (P15735 1-406): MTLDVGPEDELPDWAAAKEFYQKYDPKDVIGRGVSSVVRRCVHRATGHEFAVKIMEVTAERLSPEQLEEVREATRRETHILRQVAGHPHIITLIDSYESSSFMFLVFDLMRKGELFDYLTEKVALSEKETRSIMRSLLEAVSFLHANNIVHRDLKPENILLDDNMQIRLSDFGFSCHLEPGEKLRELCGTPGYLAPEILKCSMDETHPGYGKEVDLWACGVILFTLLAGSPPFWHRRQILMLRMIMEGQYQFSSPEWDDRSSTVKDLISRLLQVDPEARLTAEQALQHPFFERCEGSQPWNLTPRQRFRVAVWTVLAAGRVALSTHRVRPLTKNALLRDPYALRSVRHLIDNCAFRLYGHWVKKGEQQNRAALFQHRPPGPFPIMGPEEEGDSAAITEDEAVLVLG
Put plainly: ThermoFisher SelectScreen, PHKG2. The following applies: Table 4. The class given is binding. How it is done: as §1, §2

In a further data set the target is JNK2 (Homo sapiens, UniProt P45984). Put plainly: Promega NanoBRET intracellular target engagement (tracer K10 displacement), JNK2. The data set is classed as cell-based.
Another data set deals with T3, MEK5 (Homo sapiens, UniProt Q13163).
T3 construct: purchased ThermoFisher (SelectScreen, outsourced service)
T3 sequence (Q13163 1-448): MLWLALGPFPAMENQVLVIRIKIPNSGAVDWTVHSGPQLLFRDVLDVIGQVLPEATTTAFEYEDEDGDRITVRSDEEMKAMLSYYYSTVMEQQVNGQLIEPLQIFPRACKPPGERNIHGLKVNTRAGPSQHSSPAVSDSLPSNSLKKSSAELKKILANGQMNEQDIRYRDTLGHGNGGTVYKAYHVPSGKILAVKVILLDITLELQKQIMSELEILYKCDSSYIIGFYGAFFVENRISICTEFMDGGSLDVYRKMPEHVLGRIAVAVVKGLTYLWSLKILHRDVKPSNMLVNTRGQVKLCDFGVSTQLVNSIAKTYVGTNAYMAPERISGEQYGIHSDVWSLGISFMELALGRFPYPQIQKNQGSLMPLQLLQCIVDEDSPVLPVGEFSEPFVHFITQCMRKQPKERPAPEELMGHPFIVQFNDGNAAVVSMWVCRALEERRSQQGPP
Put plainly: ThermoFisher SelectScreen, MEK5. The data set is classed as binding. The following applies: Table 4. How it is done:
as §1, §2

A further data set addresses T4, CLK2 (Homo sapiens, UniProt P49760).
T4 construct: purchased ThermoFisher (SelectScreen)
As to the kind of experiment: ThermoFisher SelectScreen, CLK2. The data set is classed as binding.

Data set [2] has as its target T5, JNK1 (Homo sapiens, UniProt P45983). As to the kind of experiment: JNK1 kinase (intrinsic ATPase, Kinase-Glo) assay. The data set is classed as biochemical. An outline of the steps: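 Full-length construct not stated; kinases hydrolyse ATP without peptide substrate, reaction run 30 or 60 min at 30° C, remaining ATP read by Kinase-Glo luminescence with no-kinase controls. Apparent Ki from normalized fractional activities fitted to modified Morrison tight-binding equation; orthogonal LanthaScreen binding assay gave IC50.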
(Kinase-Glo reads ATP consumption through a luciferase reaction.)

Data set [3] concerns the target T5, JNK1. Put plainly: ThermoFisher SelectScreen, JNK1. The class given is binding.

JNK2, sequence (P45984 whole entry): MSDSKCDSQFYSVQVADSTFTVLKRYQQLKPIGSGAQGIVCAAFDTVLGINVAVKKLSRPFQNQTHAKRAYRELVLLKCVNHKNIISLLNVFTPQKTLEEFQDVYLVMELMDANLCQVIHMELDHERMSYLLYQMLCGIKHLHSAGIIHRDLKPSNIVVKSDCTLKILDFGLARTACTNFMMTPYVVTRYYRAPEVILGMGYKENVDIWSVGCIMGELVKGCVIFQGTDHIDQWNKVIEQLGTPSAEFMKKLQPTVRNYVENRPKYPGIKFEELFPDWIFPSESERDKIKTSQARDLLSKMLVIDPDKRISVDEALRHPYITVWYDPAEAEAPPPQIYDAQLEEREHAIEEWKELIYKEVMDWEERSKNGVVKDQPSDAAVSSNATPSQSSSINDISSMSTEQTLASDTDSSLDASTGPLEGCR
T1 sequence (P48729 whole entry): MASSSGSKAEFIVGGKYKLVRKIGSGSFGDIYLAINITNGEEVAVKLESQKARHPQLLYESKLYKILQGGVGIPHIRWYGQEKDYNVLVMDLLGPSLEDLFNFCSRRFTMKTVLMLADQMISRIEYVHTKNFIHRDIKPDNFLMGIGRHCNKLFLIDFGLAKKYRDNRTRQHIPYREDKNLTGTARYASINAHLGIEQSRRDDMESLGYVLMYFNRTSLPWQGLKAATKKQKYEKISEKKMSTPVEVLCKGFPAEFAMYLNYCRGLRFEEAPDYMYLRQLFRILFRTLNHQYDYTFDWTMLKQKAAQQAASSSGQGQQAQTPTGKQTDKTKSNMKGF
T4 sequence (P49760 whole entry): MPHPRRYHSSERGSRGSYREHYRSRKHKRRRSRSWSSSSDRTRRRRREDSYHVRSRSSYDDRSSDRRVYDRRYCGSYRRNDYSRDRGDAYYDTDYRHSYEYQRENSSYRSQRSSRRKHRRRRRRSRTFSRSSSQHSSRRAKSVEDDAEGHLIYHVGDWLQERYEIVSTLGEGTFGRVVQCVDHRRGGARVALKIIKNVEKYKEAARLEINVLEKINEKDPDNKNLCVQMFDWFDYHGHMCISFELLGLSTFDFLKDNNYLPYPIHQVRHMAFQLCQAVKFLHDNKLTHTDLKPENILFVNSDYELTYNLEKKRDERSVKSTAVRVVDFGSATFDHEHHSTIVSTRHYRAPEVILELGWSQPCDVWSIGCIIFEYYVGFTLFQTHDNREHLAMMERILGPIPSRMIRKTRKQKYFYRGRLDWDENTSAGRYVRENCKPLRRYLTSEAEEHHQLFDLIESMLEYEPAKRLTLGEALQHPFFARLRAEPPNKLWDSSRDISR
T5 sequence (P45983 whole entry): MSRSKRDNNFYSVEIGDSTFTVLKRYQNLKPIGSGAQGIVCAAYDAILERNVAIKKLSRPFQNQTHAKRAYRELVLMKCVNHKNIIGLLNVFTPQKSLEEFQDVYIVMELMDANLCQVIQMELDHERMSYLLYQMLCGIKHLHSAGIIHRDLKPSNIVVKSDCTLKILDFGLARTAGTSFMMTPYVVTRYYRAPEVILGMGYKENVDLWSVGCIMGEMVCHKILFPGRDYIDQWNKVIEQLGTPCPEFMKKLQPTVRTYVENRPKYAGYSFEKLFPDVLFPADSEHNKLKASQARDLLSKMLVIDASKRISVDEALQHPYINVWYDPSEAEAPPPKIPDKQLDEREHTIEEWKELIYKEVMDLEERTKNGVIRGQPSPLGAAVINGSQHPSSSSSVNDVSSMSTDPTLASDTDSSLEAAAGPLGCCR

In general, Kd refers to the free concentration of one partner at which half of the binding sites on the other are occupied at equilibrium, for simple one-to-one binding. A high value points to a looser complex. As a reminder, the half-life is the time in which the quantity being followed falls by half. A high value points to slow loss. By IC50 is commonly meant the concentration that gives 50% inhibition. Read a low IC50 as greater potency in that assay. Take `CNCc1ccc(NC(=O)c2ccn3ncc(-c4cnc5[nH]ccc5c4)c3c2)cc1` [CDD-2346, N-(4-((methylamino)methyl)phenyl)-3-(1H-pyrrolo[2,3-b]pyridin-5-yl)pyrazolo[1,5-a]pyridine-5-carboxamide]: the Kd was 85 nM on CSNK1A1; 188 nM on PHKG2; 579 nM at MEK5; 34 nM on CLK2; 0.23 ± 0.08 nM on JNK1 [2]. Moreover, in data set [1], the half-life was determined as 3.14 h. This compound gave an IC50 at JNK2 of 1700 nM.

As to `CN(C)Cc1ccc(NC(=O)c2ccn3ncc(-c4cnc5[nH]ccc5c4)c3c2)cc1` [CDD-2482, N-(4-((dimethylamino)methyl)phenyl)-3-(1H-pyrrolo[2,3-b]pyridin-5-yl)pyrazolo[1,5-a]pyridine-5-carboxamide], the Kd amounted to 70.5 nM on CSNK1A1; 110 nM on PHKG2; 547 nM on MEK5; 17 nM on CLK2; 0.25 ± 0.04 nM on JNK1 [2]. In addition, the half-life in data set [1] was found to be 0.945 h.

For `O=C(Nc1ccc(F)cc1)c1ccn2ncc(-c3cnc4[nH]ccc4c3)c2c1` [CDD-2486, N-(4-fluorophenyl)-3-(1H-pyrrolo[2,3-b]pyridin-5-yl)pyrazolo[1,5-a]pyridine-5-carboxamide], the Kd at CSNK1A1 is 41300 nM; on PHKG2, 1950 nM; at MEK5, 4040 nM; at CLK2, 130 nM; on JNK1 [2], 1.7 ± 0.2 nM. This compound returned a half-life in data set [1] of 0.565 h. For the same compound, on JNK2, the IC50 was determined as 442 nM.

In data set [1], `CN(C)C(=O)c1cc(NC(=O)c2cc3c(-c4cnc5[nH]ccc5c4)cccc3s2)ccc1O` [CDD-2728, N-(3-(dimethylcarbamoyl)-4-hydroxyphenyl)-4-(1H-pyrrolo[2,3-b]pyridin-5-yl)benzo[b]thiophene-2-carboxamide] gave a half-life of 2.89 h. Moreover, the IC50 on JNK2 turned out to be 570 nM. Besides, the Kd at JNK1 [3] turned out to be 1 nM; on CLK2 it was 240 nM; on JNK1 [2], 0.24 ± 0.05 nM.
